The record followed here is patent US8129371B2, “Thienopyrimidine and pyrazolopyrimidine compounds and their use as mTOR kinase and PI3 kinase inhibitors” (Wyeth LLC, priority 2007, dated 2012).

Structures are written as SMILES. Like-named read-outs stand apart in the source and are kept apart here.

One experiment relates to prostate line LNCap. Briefly: In vitro cell culture growth assay (MTS), LNCap. It is filed as cell-based. As to conditions: Homo sapiens, LNCaP, 72 h, LNCap cells, three days after drug treatment. The gist of the method: (§1)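 Viable cell density is assessed three days after inhibitor addition via MTS conversion, normalised to vehicle-treated cells.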
A further experiment relates to breast line MDA468. Briefly: In vitro cell culture growth assay (MTS), MDA468. It counts as cell-based. Conditions: Homo sapiens, 72 h, MDA468 cells, three days after drug treatment. The gist of the method:
as §1

For the next experiment, the target named is T1, Human mTOR (FLAG-TOR) (Homo sapiens, UniProt P42345).
T1 construct: FLAG
As to the kind of experiment: Human mTOR kinase assay with purified enzyme, DELFIA format. It is filed as biochemical. A digest of the protocol:
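Purified FLAG-mTOR in HEPES pH 7.4 buffer with 10 mM MnCl2 was preincubated with inhibitor and reacted 2 h at room temperature with His6-S6K substrate, then stopped with EDTA/EGTA. Phospho-T389 S6K detected by DELFIA with Eu-labelled antibody (40 ng/mL) after plate capture; inhibition computed from signal.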

Experiment [1] addresses T2, PI3K (Homo sapiens, UniProt P48736).
T2 construct: PI3 Kinase γ IC50; other: PI3 Kinase γ; other: PI3 Kinase γ isoform, fluorescence polarization
Briefly: Fluorescence polarization assay for PI3K. It counts as biochemical. Conditions: read-out: PI3 Kinase γ IC50. The gist of the method:
(§2)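 PI3K was preincubated with compound (final DMSO 1%), and the reaction was started with PIP2/ATP substrate and run 30–60 min. It was stopped with a detector mix giving 10 nM red probe and 70 nM GST-GRP.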
(In general: Polarisation of emitted light reports the rotation of a fluorescent probe.)

Experiment [2] addresses T3, PI3K (Homo sapiens, UniProt P42336).
T3 construct: PI3 Kinase α IC50; other: PI3 Kinase α; other: PI3 Kinase α isoform, fluorescence polarization
Briefly: Fluorescence polarization assay for PI3K. It counts as biochemical. As to conditions: read-out: PI3 Kinase α IC50. The gist of the method: as §2

[3] abbreviates: purified human mTOR enzyme, DELFIA format.
Where [4] appears, read: PI3 Kinase γ isoform, fluorescence polarization.
[5] abbreviates: PI3 Kinase α isoform, fluorescence polarization.

T3 sequence (P42336 whole entry, canonical isoform): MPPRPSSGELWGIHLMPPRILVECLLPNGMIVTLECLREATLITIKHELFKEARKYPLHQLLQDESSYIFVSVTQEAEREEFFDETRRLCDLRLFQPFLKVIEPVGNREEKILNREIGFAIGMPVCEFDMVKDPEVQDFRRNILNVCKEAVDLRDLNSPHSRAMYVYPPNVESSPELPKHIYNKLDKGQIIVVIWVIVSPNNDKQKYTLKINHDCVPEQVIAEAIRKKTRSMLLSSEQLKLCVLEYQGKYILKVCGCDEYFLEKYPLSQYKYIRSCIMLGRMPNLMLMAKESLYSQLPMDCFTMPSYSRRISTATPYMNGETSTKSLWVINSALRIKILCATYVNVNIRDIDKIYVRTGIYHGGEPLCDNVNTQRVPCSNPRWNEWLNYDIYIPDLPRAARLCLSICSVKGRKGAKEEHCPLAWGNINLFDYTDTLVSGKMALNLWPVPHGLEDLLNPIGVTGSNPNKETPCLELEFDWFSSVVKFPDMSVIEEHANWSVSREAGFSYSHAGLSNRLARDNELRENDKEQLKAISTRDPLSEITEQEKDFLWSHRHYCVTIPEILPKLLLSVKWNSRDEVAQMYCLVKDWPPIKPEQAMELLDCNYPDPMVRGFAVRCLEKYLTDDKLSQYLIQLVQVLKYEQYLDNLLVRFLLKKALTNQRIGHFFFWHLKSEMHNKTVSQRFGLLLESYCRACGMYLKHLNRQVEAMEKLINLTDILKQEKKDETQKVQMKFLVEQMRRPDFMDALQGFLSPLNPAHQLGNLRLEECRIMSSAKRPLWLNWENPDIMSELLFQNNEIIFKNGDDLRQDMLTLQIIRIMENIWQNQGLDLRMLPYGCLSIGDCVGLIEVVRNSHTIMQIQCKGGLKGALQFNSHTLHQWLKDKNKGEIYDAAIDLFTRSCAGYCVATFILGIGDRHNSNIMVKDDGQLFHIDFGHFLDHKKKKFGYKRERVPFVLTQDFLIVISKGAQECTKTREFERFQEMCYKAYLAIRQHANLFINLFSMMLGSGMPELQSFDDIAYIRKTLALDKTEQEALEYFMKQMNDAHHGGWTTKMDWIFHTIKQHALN
T2 sequence (P48736 whole entry, canonical isoform): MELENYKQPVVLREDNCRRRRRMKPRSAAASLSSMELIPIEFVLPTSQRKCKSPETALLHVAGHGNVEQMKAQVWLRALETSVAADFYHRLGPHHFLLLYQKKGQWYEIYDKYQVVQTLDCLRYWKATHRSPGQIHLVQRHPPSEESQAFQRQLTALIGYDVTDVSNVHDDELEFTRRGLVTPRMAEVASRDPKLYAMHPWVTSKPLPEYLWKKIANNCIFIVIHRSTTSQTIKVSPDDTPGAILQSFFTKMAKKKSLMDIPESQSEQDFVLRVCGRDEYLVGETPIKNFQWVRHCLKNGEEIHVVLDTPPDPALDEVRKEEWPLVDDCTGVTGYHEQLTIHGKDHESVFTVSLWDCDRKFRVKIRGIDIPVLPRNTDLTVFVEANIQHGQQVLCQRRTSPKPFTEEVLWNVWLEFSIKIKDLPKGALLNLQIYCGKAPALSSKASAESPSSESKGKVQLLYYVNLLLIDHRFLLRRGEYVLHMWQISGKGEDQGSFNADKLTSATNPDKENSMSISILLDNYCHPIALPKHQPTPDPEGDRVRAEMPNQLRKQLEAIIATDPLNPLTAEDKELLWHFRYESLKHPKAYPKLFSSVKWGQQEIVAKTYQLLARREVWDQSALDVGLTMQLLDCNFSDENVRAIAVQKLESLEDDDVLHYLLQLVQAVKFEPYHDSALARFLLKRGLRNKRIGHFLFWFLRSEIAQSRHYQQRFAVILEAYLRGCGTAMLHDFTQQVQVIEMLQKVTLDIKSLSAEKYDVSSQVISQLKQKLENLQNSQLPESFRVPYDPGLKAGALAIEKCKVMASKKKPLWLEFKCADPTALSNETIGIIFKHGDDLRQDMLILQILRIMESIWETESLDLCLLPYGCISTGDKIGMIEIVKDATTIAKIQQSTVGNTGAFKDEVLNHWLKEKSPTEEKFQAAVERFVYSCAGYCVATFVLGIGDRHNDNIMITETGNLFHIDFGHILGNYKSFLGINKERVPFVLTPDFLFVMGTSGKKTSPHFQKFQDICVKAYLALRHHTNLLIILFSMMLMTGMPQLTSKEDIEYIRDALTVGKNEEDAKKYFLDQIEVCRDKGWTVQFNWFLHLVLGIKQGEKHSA

For orientation: IC50 means the concentration that inhibits the measured activity by half. In the case of `O=C(Nc1ccc(-c2nc(N3CC4C[C@@H](O)C(C3)O4)c3cnn(CC(F)(F)F)c3n2)cc1)OCCO` (stereo partly drawn) [Example 379, 2-hydroxyethyl (4-{4-[(6R)-6-hydroxy-8-oxa-3-azabicyclo[3.2.1]oct-3-yl]-1-(2,2,2-trifluoroethyl)-1H-pyrazolo[3,4-d]pyrimidin-6-yl}phenyl)carbamate], the concentration for half-maximal inhibition (IC50) in the experiment on prostate line LNCap is 6800 nM; in the experiment with breast line MDA468, 5000 nM; against Human mTOR (FLAG-TOR) (setting [3]), 245 nM; at PI3K [1] (setting [4]), greater than 10 µM; on PI3K [2] (setting [5]) it was greater than 10000 nM.
On to `CC(C)(C)OC(=O)N1CCC(n2ncc3c(N4CC5CCC(C4)O5)nc(-c4ccc(NC(=O)Nc5ccncc5)cc4)nc32)CC1` [Example 25, tert-butyl 4-[4-(8-oxa-3-azabicyclo[3.2.1]oct-3-yl)-6-{4-[(pyridin-4-ylcarbamoyl)amino]phenyl}-1H-pyrazolo[3,4-d]pyrimidin-1-yl]piperidine-1-carboxylate], for which the concentration for half-maximal inhibition (IC50) amounted to 38 nM in the experiment on prostate line LNCap; 70 nM in the experiment on breast line MDA468; 0.47 nM at Human mTOR (FLAG-TOR); 1.64 µM at PI3K [1] (PI3 Kinase γ); 595 nM on PI3K [2] (PI3 Kinase α).
On to `CCNC(=O)Nc1ccc(-c2nc(N3CC4CCC(C3)O4)c3cnn(C(C)(C)C)c3n2)cc1` [Example 94], for which the IC50 with prostate line LNCap was 50 nM; in the experiment with breast line MDA468, 490 nM; at Human mTOR (FLAG-TOR), 0.51 nM; at PI3K [1] (PI3 Kinase γ) it was greater than 10 µM; at PI3K [2] (PI3 Kinase α), 804 nM.
For the compound `O=C(Nc1ccc(CO)cc1)Nc1ccc(-c2nc(N3CC4CCC(C3)O4)c3cnn(CCF)c3n2)cc1` [Example 250, 1-{4-[1-(2-fluoroethyl)-4-(8-oxa-3-azabicyclo[3.2.1]oct-3-yl)-1H-pyrazolo[3,4-d]pyrimidin-6-yl]phenyl}-3-[4-(hydroxymethyl)phenyl]urea], the IC50 with prostate line LNCap is less than 1 nM; in the experiment with breast line MDA468 it was 4 nM; against Human mTOR (FLAG-TOR), 0.086 nM; on PI3K [1] (PI3 Kinase γ) it was 0.952 µM; on PI3K [2] (PI3 Kinase α), 34 nM.
Turning to `Nc1ncc(-c2nc(N3CC4CCC(C3)O4)c3sccc3n2)cn1` [Example 421, 5-[4-(8-oxa-3-azabicyclo[3.2.1]oct-3-yl)thieno[3,2-d]pyrimidin-2-yl]pyrimidin-2-amine], the IC50 was determined as 1200 nM in the experiment on prostate line LNCap; 3900 nM in the experiment with breast line MDA468; 51 nM against Human mTOR (FLAG-TOR) (setting [3]); 9.18 µM at PI3K [1] (setting [4]); 246 nM on PI3K [2] (setting [5]).
With `CCn1ncc2c(N3CC4CCC(C3)O4)nc(-c3ccc(NC(=O)OCC(C)O)cc3)nc21` (stereo not drawn) [Example 191, 2-hydroxypropyl {4-[1-ethyl-4-(8-oxa-3-azabicyclo[3.2.1]oct-3-yl)-1H-pyrazolo[3,4-d]pyrimidin-6-yl]phenyl}carbamate], the IC50 in the experiment with prostate line LNCap is 210 nM; with breast line MDA468, 780 nM; against Human mTOR (FLAG-TOR), 3.55 nM; on PI3K [1] (PI3 Kinase γ) it was greater than 10 µM; on PI3K [2] (PI3 Kinase α), 6640 nM.
Take `COC(=O)N1CCC(n2ncc3c(N4C5CCC4COC5)nc(-c4ccc(NC(=O)Nc5ccc(N6CCN(C)CC6)cc5)cc4)nc32)CC1` [Example 363, methyl 4-{6-[4-({[4-(4-methylpiperazin-1-yl)phenyl]carbamoyl}amino)phenyl]-4-(3-oxa-8-azabicyclo[3.2.1]oct-8-yl)-1H-pyrazolo[3,4-d]pyrimidin-1-yl}piperidine-1-carboxylate]: the IC50 was less than 1 nM in the experiment on prostate line LNCap; 1 nM in the experiment on breast line MDA468; 0.545 nM at Human mTOR (FLAG-TOR) (setting [3]); 3.24 µM on PI3K [1] (setting [4]); 1590 nM at PI3K [2] (setting [5]).
`CC(C)n1ncc2c(N3CC4CCC(C3)O4)nc(-c3ccc(NC(=O)OCCO)cc3)nc21` [Example 144, 2-hydroxyethyl {4-[1-isopropyl-4-(8-oxa-3-azabicyclo[3.2.1]oct-3-yl)-1H-pyrazolo[3,4-d]pyrimidin-6-yl]phenyl}carbamate]: the half-maximal inhibitory concentration (IC50) with prostate line LNCap came to 23 nM; in the experiment on breast line MDA468, 270 nM; against Human mTOR (FLAG-TOR) it was 0.27 nM; at PI3K [1] (PI3 Kinase γ) it was 11 µM; at PI3K [2] (PI3 Kinase α) it was 831 nM.
For `CCn1ncc2c(N3CC4CCC(C3)O4)nc(-c3ccc(NC(=O)Nc4ccc(N5CCCC5)cc4)cc3)nc21` [Example 280, 1-{4-[1-ethyl-4-(8-oxa-3-azabicyclo[3.2.1]oct-3-yl)-1H-pyrazolo[3,4-d]pyrimidin-6-yl]phenyl}-3-(4-pyrrolidin-1-ylphenyl)urea], in that order: 55 nM, 120 nM, 6 nM, 8.21 µM and 1440 nM.
As to `COC(=O)Nc1ccc(-c2nc(N3CC4CCC(C3)O4)c3cnn(C(C)C)c3n2)cc1` [Example 138, methyl {4-[1-isopropyl-4-(8-oxa-3-azabicyclo[3.2.1]oct-3-yl)-1H-pyrazolo[3,4-d]pyrimidin-6-yl]phenyl}carbamate], the IC50 turned out to be 80 nM with prostate line LNCap; 510 nM in the experiment with breast line MDA468; 1.27 nM on Human mTOR (FLAG-TOR); 3.78 µM at PI3K [1] (PI3 Kinase γ); 1040 nM at PI3K [2] (PI3 Kinase α).
Turning to `COC(=O)N1CCC(n2ncc3c(N4CC5CCC(C4)O5)nc(-c4ccc(NC(=O)Nc5ccc(CCO)cc5)cc4)nc32)CC1` [Example 165, methyl 4-{6-[4-({[4-(2-hydroxyethyl)phenyl]carbamoyl}amino)phenyl]-4-(8-oxa-3-azabicyclo[3.2.1]oct-3-yl)-1H-pyrazolo[3,4-d]pyrimidin-1-yl}piperidine-1-carboxylate], the IC50 is less than 1 nM in the experiment on prostate line LNCap; less than 1 nM in the experiment with breast line MDA468; 0.095 nM against Human mTOR (FLAG-TOR); 2.49 µM on PI3K [1] (PI3 Kinase γ); 54 nM on PI3K [2] (PI3 Kinase α).
As to `COC(=O)N1CCC(n2ncc3c(N4C5CCC4COC5)nc(-c4ccc(NC(=O)NC5CC5)cc4)nc32)CC1` [Example 359, methyl 4-[6-{4-[(cyclopropylcarbamoyl)amino]phenyl}-4-(3-oxa-8-azabicyclo[3.2.1]oct-8-yl)-1H-pyrazolo[3,4-d]pyrimidin-1-yl]piperidine-1-carboxylate], the 50% inhibitory concentration (IC50) in the experiment with prostate line LNCap stood at 6 nM; in the experiment with breast line MDA468 it was 36 nM; against Human mTOR (FLAG-TOR) (setting [3]), 0.705 nM; at PI3K [1] (setting [4]) it was 7.79 µM; on PI3K [2] (setting [5]), 5640 nM.
As to `COC(=O)N1CCC(n2ncc3c(N4CC5CCC(C4)O5)nc(-c4ccc(NC(=O)Nc5ccc(CO)cc5)cc4)nc32)CC1` [Example 164, methyl 4-{6-[4-({[4-(hydroxymethyl)phenyl]carbamoyl}amino)phenyl]-4-(8-oxa-3-azabicyclo[3.2.1]oct-3-yl)-1H-pyrazolo[3,4-d]pyrimidin-1-yl}piperidine-1-carboxylate], the concentration for half-maximal inhibition (IC50) with prostate line LNCap was less than 1 nM; in the experiment on breast line MDA468, less than 1 nM; on Human mTOR (FLAG-TOR), 0.08 nM; on PI3K [1] (PI3 Kinase γ), 1.82 µM; at PI3K [2] (PI3 Kinase α) it was 29 nM.
Consider `CN(C)CCCNC(=O)Nc1ccc(-c2nc(N3CC4CCC(C3)O4)c3cnn(C)c3n2)cc1` [Example 59, 1-[3-(dimethylamino)propyl]-3-{4-[1-methyl-4-(8-oxa-3-azabicyclo[3.2.1]oct-3-yl)-1H-pyrazolo[3,4-d]pyrimidin-6-yl]phenyl}urea], for which the IC50 was 2900 nM with prostate line LNCap; 8800 nM in the experiment with breast line MDA468; 100 nM on Human mTOR (FLAG-TOR); greater than 10 µM at PI3K [1] (PI3 Kinase γ); 1700 nM on PI3K [2] (PI3 Kinase α).
For the compound `CCn1ncc2c(N3CC4CCC(C3)O4)nc(-c3ccc4[nH]ccc4c3)nc21` [Example 76, 1-ethyl-6-(1H-indol-5-yl)-4-(8-oxa-3-azabicyclo[3.2.1]oct-3-yl)-1H-pyrazolo[3,4-d]pyrimidine], the IC50 in the experiment with prostate line LNCap is 1700 nM; with breast line MDA468 it was 7000 nM; on Human mTOR (FLAG-TOR) it was 29 nM; at PI3K [1] (PI3 Kinase γ), greater than 10 µM; at PI3K [2] (PI3 Kinase α), 6690 nM.
Taken in the same sequence, the figures for `COC(=O)Nc1ccc(-c2nc(N3CC4CCC(C3)O4)c3cnn(CCN(C)C)c3n2)cc1` [Example 154, methyl (4-{1-[2-(dimethylamino)ethyl]-4-(8-oxa-3-azabicyclo[3.2.1]oct-3-yl)-1H-pyrazolo[3,4-d]pyrimidin-6-yl}phenyl)carbamate] were 2900 nM, 19000 nM, 85 nM, greater than 10 µM and 4280 nM.
Turning to `CNC(=O)Nc1ccc(-c2nc(N3C[C@H]4C[C@@H]3CO4)c3cnn(CC(F)(F)F)c3n2)cc1` [Example 341, 1-methyl-3-(4-{4-[(1R,4R)-2-oxa-5-azabicyclo[2.2.1]hept-5-yl]-1-(2,2,2-trifluoroethyl)-1H-pyrazolo[3,4-d]pyrimidin-6-yl}phenyl)urea], the IC50 is 2500 nM in the experiment on prostate line LNCap; 5000 nM with breast line MDA468; 91 nM against Human mTOR (FLAG-TOR) (setting [3]); greater than 10 µM on PI3K [1] (setting [4]); 4630 nM on PI3K [2] (setting [5]).
In the case of `CCn1ncc2c(N3CC4CCC(C3)O4)nc(-c3ccc(NC(=O)Nc4ccc(CO)cc4)cc3)nc21` [Example 182, 1-{4-[1-ethyl-4-(8-oxa-3-azabicyclo[3.2.1]oct-3-yl)-1H-pyrazolo[3,4-d]pyrimidin-6-yl]phenyl}-3-[4-(hydroxymethyl)phenyl]urea], the IC50 in the experiment with prostate line LNCap is less than 1 nM; in the experiment on breast line MDA468, less than 1 nM; on Human mTOR (FLAG-TOR), 0.12 nM; at PI3K [1] (PI3 Kinase γ), 1.27 µM; on PI3K [2] (PI3 Kinase α), 40 nM.
